Test [1] addresses BaF3(T315I) (Homo sapiens, UniProt P00519, T315I, cells depend on it). In words: WST (CCK-8) anti-proliferation assay, BaF3 T315I cells. The following applies: read-out: BaF3(T315I); anti-proliferative IC50, 72 h treatment, CCK-8, BaF3 T315I.
Description: (§1) The anti-proliferative effect of representative Compounds of the Disclosure was determined by a water-soluble tetrazolium (WST)-based assay using Cell Counting Kit-8 (CCK-8). Cells were seeded in 96-well plates and treated with different concentrations of test articles for 72 h. Each treatment was tested in triplicates. Briefly, a series of 9 concentrations were chosen for each test article and added at 100 μl/well into a 96-well plate. Each concentration was tested in triplicates. 100 μl of diluent was added into 3-6 wells in the same plate for cell control group, and another set of 3-6 wells was used as a blank control.
(§2) In each well, 100 μl of cell suspension (containing optimal cell numbers, which creates approximately 100% confluence of cells in control wells based on by the absorbance (OD) value) was dispensed into the same 96-well plate except for the blank well. The plate was then cultured at 37° C. in an incubator in an atmosphere with 5% CO2 for 72 h. At the end of treatments, 20 μl/well of CCK-8 reagent was directly added to each wells. The plate was then incubated at 37° C. in an incubator in an atmosphere with 5% CO2 for 2-4 hour.
(§3) The cells viability was calculated using the mean OD value of triplicated wells following the equation below: (OD sample−OD blank)/(OD cell control−OD blank)×100 IC50 values were calculated with Graphpad Prism 6.0 software using nonlinear regression (curve fitting) type data analysis.
In test [2] the target is BaF3(WT) (Homo sapiens, UniProt P00519). In words: WST (CCK-8) anti-proliferation assay, BaF3 WT cells. As to conditions: read-out: BaF3(WT); anti-proliferative IC50, 72 h treatment, CCK-8, BaF3 WT.
Description: as §1, §2, §3

On to `CNCC1CN(C(C)C)c2c(-c3ccn[nH]3)cc(C(=O)Nc3ccc(OC(F)(F)Cl)cc3)cc21` (centres unmarked) [VII-28, N-(4-(chlorodifluoromethoxy)phenyl)-1-isopropyl-3-((methylamino)methyl)-7-(1H-pyrazol-5-yl)indoline-5-carboxamide], for which the GI50 in test [1] is 575 nM; in test [2] it was 132 nM.

For `CNC(=O)C1Cc2cc(C(=O)Nc3ccc(OC(F)(F)Cl)cc3)cc(-c3cncnc3)c2N1C(C)C` (centres unmarked) [VII-16, N5-(4-(chlorodifluoromethoxy)phenyl)-1-isopropyl-N2-methyl-7-(pyrimidin-5-yl)indoline-2,5-dicarboxamide], the figures for the GI50 in test [1] and in test [2] were 278 nM and 28 nM, respectively.

With `O=C(Nc1ccc(OC(F)(F)Cl)cc1)c1cc2c(c(-c3ccn[nH]3)c1)N(CCO)CC2` [VII-6, N-(4-(chlorodifluoromethoxy)phenyl)-1-(2-hydroxyethyl)-7-(1H-pyrazol-5-yl) indoline-5-carboxamide], the values for the GI50 in test [1] and in test [2] were 250 nM and 112 nM, respectively.

`CS(=O)(=O)N1CCc2cc(C(=O)Nc3ccc(OC(F)(F)Cl)cc3)cc(-c3ccn[nH]3)c21` [VII-9, N-(4-(chlorodifluoromethoxy)phenyl)-1-(methylsulfonyl)-7-(1H-pyrazol-5-yl) indoline-5-carboxamide]: the GI50 was determined as 4960 nM in test [1] and 403 nM in test [2].

`Cc1cn(C(C)C)c2c(-c3cncnc3)cc(C(=O)Nc3ccc(OC(F)(F)Cl)cc3)cc12` [XII-5, N-(4-(chlorodifluoromethoxy)phenyl)-1-isopropyl-3-methyl-7-(pyrimidin-5-yl)-1H-indole-5-carboxamide]: the GI50 is 3180 nM in test [1] and 103 nM in test [2].

Turning to `CN1C(=O)C(C)(C)c2c(-c3ccn[nH]3)cc(C(=O)Nc3ccc(OC(F)(F)Cl)cc3)cc21` [V-2, N-(4-(chlorodifluoromethoxy)phenyl)-1,3,3-trimethyl-2-oxo-4-(1H-pyrazol-5-yl)indoline-6-carboxamide], the GI50 was determined as 354 nM in test [1] and 55 nM in test [2].

On to `CC(C)N1c2c(cc(C(=O)Nc3ccc(OC(F)(F)Cl)cc3)cc2-c2ccn[nH]2)CC1C(=O)N1CCOCC1` (centres unmarked) [VII-25, N-(4-(chlorodifluoromethoxy)phenyl)-1-isopropyl-2-(morpholine-4-carbonyl)-7-(1H-pyrazol-5-yl)indoline-5-carboxamide], for which the GI50 in test [1] was determined as 243 nM; in test [2], 58 nM.

On to `O=C(Nc1ccc(OC(F)(F)Cl)cc1)c1cc2c(c(-c3ccn[nH]3)c1)N(C1CCC1)CC2` [VII-8, N-(4-(chlorodifluoromethoxy)phenyl)-1-cyclobutyl-7-(1H-pyrazol-5-yl) indoline-5-carboxamide], for which the GI50 was 468 nM in test [1] and 23 nM in test [2].

Take `O=C(Nc1ccc(OC(F)(F)Cl)cc1)c1cc2c(c(-c3ccn[nH]3)c1)C1(CCCCC1)C(=O)N2` [V-11, N-(4-(chlorodifluoromethoxy)phenyl)-2′-oxo-4′-(1H-pyrazol-5-yl)spiro[cyclohexane-1,3′-indoline]-6′-carboxamide]: the GI50 in test [1] stood at 40 nM; in test [2] it was 8 nM.

Regarding `CC1(C)CNc2cc(C(=O)Nc3ccc(OC(F)(F)Cl)cc3)cc(-c3ccn[nH]3)c21` [III-3, N-(4-(chlorodifluoromethoxy)phenyl)-3,3-dimethyl-4-(1H-pyrazol-5-yl)indoline-6-carboxamide], the GI50 in test [1] was determined as 790 nM; in test [2], 94 nM.

Take `CC1(C)c2c(cc(C(=O)Nc3ccc(OC(F)(F)Cl)cc3)cc2-c2ccn[nH]2)C(=O)N1CCN1CCS(=O)(=O)CC1` [IV-7, N-(4-(chlorodifluoromethoxy)phenyl)-2-(2-(1,1-dioxidothiomorpholino)ethyl)-1,1-dimethyl-3-oxo-7-(1H-pyrazol-5-yl)isoindoline-5-carboxamide]: the GI50 in test [1] was 1750 nM; in test [2], 364 nM.

Take `CN1CCCc2cc(C(=O)Nc3ccc(OC(F)(F)Cl)cc3)cc(-c3ccn[nH]3)c21` [IX-2, N-(4-(chlorodifluoromethoxy)phenyl)-1-methyl-8-(1H-pyrazol-5-yl)-1,2,3,4-tetrahydroquinoline-6-carboxamide]: the values for the GI50 in test [1] and in test [2] were 332 nM and 162 nM, respectively.

For `CC(C)N1CC(C)(C)c2cc(C(=O)Nc3ccc(OC(F)(F)Cl)cc3)cc(-c3ccn[nH]3)c21` [VII-40, N-(4-(chlorodifluoromethoxy)phenyl)-1-isopropyl-3,3-dimethyl-7-(1H-pyrazol-5-yl)indoline-5-carboxamide], the values for the GI50 in test [1] and in test [2] were 256 nM and 20 nM, respectively.

With `CC(=O)N(C)CC1Cc2cc(C(=O)Nc3ccc(OC(F)(F)Cl)cc3)cc(-c3ccn[nH]3)c2N1C(C)C` (centres unmarked) [VII-18, N-(4-(chlorodifluoromethoxy)phenyl)-1-isopropyl-2-((N-methylacetamido)methyl)-7-(1H-pyrazol-5-yl)indoline-5-carboxamide], the GI50 in test [1] worked out at 484 nM; in test [2], 124 nM.

Regarding `CN1C(=O)C(C)(C)c2cc(C(=O)Nc3ccc(OC(F)(F)Cl)cc3)cc(-c3ccn[nH]3)c21` [VIII-1, N-(4-(chlorodifluoromethoxy)phenyl)-1,3,3-trimethyl-2-oxo-7-(1H-pyrazol-5-yl)indoline-5-carboxamide], the GI50 in test [1] is 3680 nM; in test [2], 458 nM.

For `O=C(Nc1ccc(OC(F)(F)Cl)cc1)c1cc2c(c(-c3cc[nH]n3)c1)C1(CCC(O)C1)C(=O)N2` (centres unmarked) [V-5, N-(4-(chlorodifluoromethoxy)phenyl)-3-hydroxy-2′-oxo-4′-(1H-pyrazol-5-yl)spiro[cyclopentane-1,3′-indoline]-6′-carboxamide], the GI50 came out at 335 nM in test [1] and 144 nM in test [2].

With `CC(C)n1cc(Cl)c2cc(C(=O)Nc3ccc(OC(F)(F)Cl)cc3)cc(-c3ccn[nH]3)c21` [XII-3, 3-chloro-N-(4-(chlorodifluoromethoxy)phenyl)-1-isopropyl-7-(1H-pyrazol-5-yl)-1H-indole-5-carboxamide], the figures for the GI50 in test [1] and in test [2] were 3270 nM and 505 nM, respectively.

`CC1(C)c2c(cc(C(=O)Nc3ccc(OC(F)(F)Cl)cc3)cc2-c2ccn[nH]2)C(=O)N1CCO` [IV-5, N-(4-(chlorodifluoromethoxy)phenyl)-2-(2-hydroxyethyl)-1,1-dimethyl-3-oxo-7-(1H-pyrazol-5-yl)isoindoline-5-carboxamide]: the GI50 in test [1] was found to be 1060 nM; in test [2], 121 nM.

On to `CC1c2cc(C(=O)Nc3ccc(OC(F)(F)Cl)cc3)cc(-c3ccn[nH]3)c2N(C(C)C)C1CO` (centres unmarked) [VII-19, N-(4-(chlorodifluoromethoxy)phenyl)-2-(hydroxymethyl)-1-isopropyl-3-methyl-7-(1H-pyrazol-5-yl)indoline-5-carboxamide], for which the GI50 in test [1] is 1090 nM; in test [2], 133 nM.

For `CC(C)N1c2c(cc(C(=O)Nc3ccc(OC(F)(F)Cl)cc3)cc2-c2ccn[nH]2)CC1C(=O)N(C)C` (centres unmarked) [VII-26, N5-(4-(chlorodifluoromethoxy)phenyl)-1-isopropyl-N2,N2-dimethyl-7-(1H-pyrazol-5-yl)indoline-2,5-dicarboxamide], the GI50 in test [1] amounted to 199 nM; in test [2], 39 nM.

With `O=C(Nc1ccc(OC(F)(F)Cl)cc1)c1cc2c(c(-c3ccn[nH]3)c1)N(C1CC1)CC2` [VII-5, N-(4-(chlorodifluoromethoxy)phenyl)-1-cyclopropyl-7-(1H-pyrazol-5-yl) indoline-5-carboxamide], the GI50 was 295 nM in test [1] and 34 nM in test [2].

Take `O=C(Nc1ccc(OC(F)(F)Cl)cc1)c1cc2c(c(-c3ccn[nH]3)c1)N(C1CC(CCl)C1)CC2` (centres unmarked) [VII-11, N-(4-(chlorodifluoromethoxy)phenyl)-1-(3-(chloromethyl)cyclobutyl)-7-(1H-pyrazol-3-yl)indoline-5-carboxamide]: the GI50 was 946 nM in test [1] and 29 nM in test [2].

In the case of `CN1CCc2cc(C(=O)Nc3ccc(SC(F)(F)F)cc3)cc(-c3ccn[nH]3)c21` [VII-44, 1-methyl-7-(1H-pyrazol-5-yl)-N-(4-((trifluoromethyl)thio)phenyl)indoline-5-carboxamide], the GI50 in test [1] was 666 nM; in test [2], 66 nM.

On to `O=C(Nc1ccc(OC(F)(F)Cl)cc1)c1cc2c(c(-c3ccn[nH]3)c1)N(C1CCCC1)CC2` [VII-2, N-(4-(chlorodifluoromethoxy)phenyl)-1-cyclopentyl-7-(1H-pyrazol-5-yl) indoline-5-carboxamide], for which the results for the GI50 in test [1] and in test [2] were 272 nM and 29 nM, respectively.

On to `CC(C)N1CCCc2cc(C(=O)Nc3ccc(OC(F)(F)Cl)cc3)cc(-c3ccn[nH]3)c21` [IX-1, N-(4-(chlorodifluoromethoxy)phenyl)-1-isopropyl-8-(1H-pyrazol-5-yl)-1,2,3,4-tetrahydroquinoline-6-carboxamide], for which the GI50 in test [1] stood at 1050 nM; in test [2], 235 nM.

As to `CC(C)N1c2c(cc(C(=O)Nc3ccc(OC(F)(F)Cl)cc3)cc2-c2ccn[nH]2)CC1CO` (centres unmarked) [VII-34, N-(4-(chlorodifluoromethoxy)phenyl)-2-(hydroxymethyl)-1-isopropyl-7-(1H-pyrazol-5-yl)indoline-5-carboxamide], the GI50 in test [1] came out at 648 nM; in test [2], 45 nM.

With `CC(C)N1CCOc2cc(C(=O)Nc3ccc(OC(F)(F)Cl)cc3)cc(-c3ccn[nH]3)c21` [IX-3, N-(4-(chlorodifluoromethoxy)phenyl)-4-isopropyl-5-(1H-pyrazol-5-yl)-3,4-dihydro-2H-benzo[b][1,4] oxazine-7-carboxamide], the GI50 in test [1] is 535 nM; in test [2], 80 nM.

As to `CC(C)N1CCc2cc(C(=O)Nc3ccc(SC(F)(F)F)cc3)cc(-c3ccn[nH]3)c21` [VII-45, 1-isopropyl-7-(1H-pyrazol-5-yl)-N-(4-((trifluoromethyl)thio)phenyl)indoline-5-carboxamide], the GI50 is 474 nM in test [1] and 18 nM in test [2].

For the origin of these results see patent publication US20220332701A1, “HETEROCYCLIC COMPOUNDS AS BCR-ABL INHIBITORS” (ASCENTAGE PHARMA (SUZHOU) CO., LTD., priority 2019, published 2022).
